Measurements as given in patent US12005107B2, “Compositions comprising recombinant Bacillus cells and a fungicide” (priority 2014, dated 2024).

Test system: Maize
Assay: Plant growth promotion, maize whole plant biomass after drench of growing media
Assay type: in vivo

trifloxystrobin
Efficacy % (additional % of plant weight compared with untreated control, actual effect observed) (drench at planting, after 14 days): 1% | Found % (plant weight, 100% = untreated control) (drench at planting, after 14 days, relative to UTC): 101% | Whole Plant Biomass (growing media drenched at planting, measured after 14 days, trifloxystrobin 0.024 mg/pot, BEE 7.85 × 10^8 CFU/pot): 2.69 g
